Test results taken from BindingDB's records for doi:10.1021/jm00022a004 (H. Lundbeck, 1995).

Biological target: 5-hydroxytryptamine receptor 2A (Rattus norvegicus, UniProt P14842)
Test: Binding affinity for 5-hydroxytryptamine 2A receptor, activity is expressed as IC50 values.

Chain of 5-hydroxytryptamine receptor 2A (P14842 whole entry): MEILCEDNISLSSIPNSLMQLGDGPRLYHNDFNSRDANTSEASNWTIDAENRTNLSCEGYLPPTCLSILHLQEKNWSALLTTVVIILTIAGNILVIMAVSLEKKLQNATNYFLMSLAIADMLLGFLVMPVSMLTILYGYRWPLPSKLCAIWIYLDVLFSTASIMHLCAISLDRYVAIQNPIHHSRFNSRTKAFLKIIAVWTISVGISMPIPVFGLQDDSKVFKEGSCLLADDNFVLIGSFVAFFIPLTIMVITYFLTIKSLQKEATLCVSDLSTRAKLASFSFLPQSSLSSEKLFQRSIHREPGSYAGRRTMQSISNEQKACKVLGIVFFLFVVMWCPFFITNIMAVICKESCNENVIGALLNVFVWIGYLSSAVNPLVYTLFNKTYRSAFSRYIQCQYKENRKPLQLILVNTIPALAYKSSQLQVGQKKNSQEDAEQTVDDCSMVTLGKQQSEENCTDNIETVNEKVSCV

CC1(C)CN(C2CC(c3ccc(F)cc3)c3ccc(Cl)cc32)CCN1 (stereo unspecified) [1-[6-Chloro-3-(4-fluoro-phenyl)-indan-1-yl]-3,3-dimethyl-piperazine]
IC50: 3.2 nM
